We go through two compounds from publication PMC7784547 (Bioorganic Chemistry, 2021).

Test [1] deals with A/Puerto Rico/8/34 (H1N1) with the NA-H274Y mutation. Format: cell-based, influenza A virus. As to conditions: read-out: IC50 ± SD, 274.
Test [2] relates to influenza A/PR/8/34 (H1N1) virus. Type of test: cell-based.

The term IC50 denotes the midpoint of a concentration-inhibition curve.

With `C=Cc1c(C)c2cc3nc(c4c5[nH]c(cc6nc(cc1[nH]2)C(C)=C6CC)c(C)c5C(=O)C4)[C@@H](CCC(=O)O)[C@@H]3C` [PPa, pyropheophorbide a, reference compound], the half-maximal inhibitory concentration (IC50) in test [1] came out at 1050 ± 990 nM.

As to protoporphyrin IX [PPIX], the 50% inhibitory concentration (IC50) in test [1] turned out to be 1240 ± 530 nM. Besides, the “IC50 after passage of ten generations” value in test [2] was 2.18 ± 0.71 µg/mL.
